Laboratory results as given in patent US20160346249A1 (priority 2012, published 2016).
Several values for one entry are separate records, joined by “and”; a condition that tells them apart may be missing. Equal entries are not always repeated.

Test: Single rising oral dose (10-150 mg IR) safety, tolerance and pharmacokinetics in healthy male volunteers
Format: in vivo, human
Description: Fifty (50) healthy male adult volunteers, between the ages of 19 and 43 years (mean±SD: 28±6 years) were enrolled in the study and randomized to the […] different treatments. […] The subjects were divided into panels of 10 subjects/dose group. Seven subjects in each group received the test drug, while three received an identical-looking placebo. […] The five treatments are outlined below:
The subjects were admitted to the clinic the night before dose administration and fasted from approximately 10 hour before to 4 hour after ingestion of the study capsules. Treatments were administered with 240 mL of mineral water between 08:00 and 09:00 hours. […] The assay calibration range was 5 to 2,000 ng/mL.
The values of Cmax and Tmax were the observed value for each subject. The terminal elimination rate constant λz was derived from the log-linear disposition phase of the concentration-time curve using linear least-squares regression for which the program determined the appropriate number of terminal points to calculate λz. At least three terminal plasma concentrations were used for estimating λz. The t1/2 (HL_Lambda_z) was calculated as ln 2/λz. AUC0-t and AUMC0-t were determined using the linear trapezoidal rule for each increasing concentration and the log-trapezoidal rule for descending concentrations. The AUC values from the last quantifiable time point to infinity was calculated as Ct/λz. This value was added to AUC0-t to obtain AUC0-∞. […] Oral clearance was calculated as Dose/AUC0-∞. The 90% confidence intervals were calculated for all of the variables.
SAS, version 8.2, was used for the analysis.

[1] = 10 mg, individual subject, listed as DOV 21,947
[2] = 25 mg, individual subject, listed as DOV 21,947
[3] = 50 mg, individual subject, listed as DOV 21,947
[4] = 100 mg, individual subject, listed as DOV 21,947
[5] = 150 mg, individual subject, listed as DOV 21,947

SMILES: Clc1ccc([C@]23CNC[C@H]2C3)cc1Cl [amitifadine, (+)-1-(3,4-dichlorophenyl)-3-azabicyclo[3.1.0]hexane]
- λ2 (10 mg, Geometric Mean): 0.204 h⁻¹
- AUC0-∞ (10 mg, Maximum): 551 ng·h/mL
- AUC(0-t) (10 mg, Maximum): 492 ng·h/mL
- MRT0-∞ (10 mg, Maximum): 6.09 h
- t1/2 (10 mg, Maximum): 3.90 h
- λ2 (10 mg, Maximum): 0.233 h⁻¹
- λz (10 mg, Mean (n = 7)): 0.205 h⁻¹
- λ2 (10 mg, Median): 0.200 h⁻¹
- AUC0-∞ (10 mg, Minimum): 257 ng·h/mL
- AUC(0-t) (10 mg, Minimum): 227 ng·h/mL
- MRT0-∞ (10 mg, Minimum): 4.72 h
- t1/2 (10 mg, Minimum): 2.98 h
- λ2 (10 mg, Minimum): 0.178 h⁻¹
- MRT0-∞ [1]: 5.47 h and 4.72 h and 6.09 h and 4.84 h
- t1/2 [1]: 3.63 h and 3.90 h and 3.09 h and 2.98 h and 3.79 h and 3.08 h
- λ2 [1]: 0.200 hr^−1 and 0.191 hr^−1 and 0.178 hr^−1 and 0.225 hr^−1 (2×) and 0.233 hr^−1 and 0.183 hr^−1
- λ2 (25 mg, Geometric Mean): 0.234 h⁻¹
- AUC0-∞ (25 mg, Maximum): 2350 ng·h/mL
- AUC(0-t) (25 mg, Maximum): 2220 ng·h/mL
- MRT0-∞ (25 mg, Maximum): 6.46 h
- t1/2 (25 mg, Maximum): 5.25 h
- λ2 (25 mg, Maximum): 0.493 h⁻¹
- λz (25 mg, Mean (n = 7)): 0.251 h⁻¹
- AUC(0-t) (25 mg, Mean (n = 7), listed as DOV 21,947): 1380 ng·h/mL
- λ2 (25 mg, Median): 0.231 h⁻¹
- AUC0-∞ (25 mg, Minimum): 1080 ng·h/mL
- AUC(0-t) (25 mg, Minimum): 995 ng·h/mL
- MRT0-∞ (25 mg, Minimum): 4.26 h
- t1/2 (25 mg, Minimum): 1.41 h
- λ2 (25 mg, Minimum): 0.132 h⁻¹
- MRT0-∞ [2]: 4.26 h and 6.46 h and 4.98 h and 4.29 h and 4.39 h
- λ2 [2]: 0.222 hr^−1 and 0.231 hr^−1 (2×) and 0.132 hr^−1 and 0.191 hr^−1 and 0.258 hr^−1 and 0.493 hr^−1
- λ2 (50 mg, Geometric Mean): 0.190 h⁻¹
- AUC0-∞ (50 mg, Maximum): 3270 ng·h/mL
- AUC(0-t) (50 mg, Maximum): 3220 ng·h/mL
- MRT0-∞ (50 mg, Maximum): 5.66 h
- t1/2 (50 mg, Maximum): 4.39 h
- λ2 (50 mg, Maximum): 0.245 h⁻¹
- λz (50 mg, Mean (n = 7)): 0.192 h⁻¹
- λ2 (50 mg, Median): 0.191 h⁻¹
- AUC0-∞ (50 mg, Minimum): 1690 ng·h/mL
- AUC(0-t) (50 mg, Minimum): 1530 ng·h/mL
- MRT0-∞ (50 mg, Minimum): 4.38 h
- t1/2 (50 mg, Minimum): 2.62 h
- λ2 (50 mg, Minimum): 0.158 h⁻¹
- MRT0-∞ [3]: 4.38 h and 5.43 h and 5.22 h and 5.60 h and 5.66 h
- λ2 [3]: 0.213 h⁻¹ and 0.245 h⁻¹ and 0.199 h⁻¹ and 0.158 h⁻¹ and 0.191 h⁻¹ and 0.167 h⁻¹ and 0.170 h⁻¹
- λ2 (100 mg, Geometric Mean): 0.167 h⁻¹
- AUC0-∞ (100 mg, Maximum): 5960 ng·h/mL
- AUC(0-t) (100 mg, Maximum): 5900 ng·h/mL
- MRT0-∞ (100 mg, Maximum): 7.03 h
- t1/2 (100 mg, Maximum): 4.35 h
- λ2 (100 mg, Maximum): 0.177 h⁻¹
- λz (100 mg, Mean (n = 7)): 0.167 h⁻¹
- λ2 (100 mg, Median): 0.164 h⁻¹
- AUC0-∞ (100 mg, Minimum): 4030 ng·h/mL
- AUC(0-t) (100 mg, Minimum): 3960 ng·h/mL
- MRT0-∞ (100 mg, Minimum): 4.85 h
- t1/2 (100 mg, Minimum): 3.92 h
- λ2 (100 mg, Minimum): 0.159 h⁻¹
- MRT0-∞ [4]: 7.03 h and 5.71 h and 5.63 h and 4.85 h
- λ2 [4]: 0.176 hr^−1 and 0.162 hr^−1 and 0.173 hr^−1 and 0.159 hr^−1 (2×) and 0.164 hr^−1 and 0.177 hr^−1
- λ2 (150 mg, Geometric Mean): 0.191 h⁻¹
- AUC0-∞ (150 mg, Maximum): 11100 ng·h/mL
- AUC(0-t) (150 mg, Maximum): 10900 ng·h/mL
- MRT0-∞ (150 mg, Maximum): 7.14 h
- t1/2 (150 mg, Maximum): 4.87 h
- λ2 (150 mg, Maximum): 0.288 h⁻¹
- λz (150 mg, Mean (n = 7)): 0.195 h⁻¹
- t1/2 (150 mg, Mean (n = 7), listed as DOV 21,947): 3.91 h
- λ2 (150 mg, Median): 0.189 h⁻¹
- AUC0-∞ (150 mg, Minimum): 6590 ng·h/mL
- AUC(0-t) (150 mg, Minimum): 6390 ng·h/mL
- MRT0-∞ (150 mg, Minimum): 4.66 h
- t1/2 (150 mg, Minimum): 2.41 h
- λ2 (150 mg, Minimum): 0.142 h⁻¹
- MRT0-∞ [5]: 7.03 h and 6.70 h and 4.66 h and 7.14 h
- λ2 [5]: 0.177 h⁻¹ and 0.142 h⁻¹ and 0.189 h⁻¹ and 0.288 h⁻¹ and 0.200 h⁻¹ and 0.159 h⁻¹ and 0.209 h⁻¹
- variability of Cmax and AUC (all doses): ≤ 30%
- MRT inf (human, plasma, oral, 10 mg, individual subject, read-out: MRT0-∞): 5.36 h
